Measurements taken from patent publication US20250082651A1, “GANAXOLONE FOR USE IN TREATING GENETIC EPILEPTIC DISORDERS” (Marinus Pharmaceuticals, Inc., priority 2017, published 2025).

What was measured:
[1] = Solubility of ganaxolone in solvents; type: physicochemical
Protocol: Ganaxolone is insoluble in water. Its solubilities in 95% alcohol, propylene glycol and polyethylene glycol are 13 mg/mL, 3.5 mg/mL and 3.1 mg/mL, respectively.
The pregnenolone neurosteroid (e.g., ganaxolone) formulations suitable for use in the present invention may also be administered parenterally. In such embodiments, the formulations are suitable for intramuscular, subcutaneous, or intravenous injection may comprise physiologically acceptable sterile aqueous or non-aqueous solutions, dispersions, suspensions or emulsions, and sterile powders for reconstitution into sterile injectable solutions or dispersions. Examples of suitable aqueous and non-aqueous carriers, diluents, solvents, or vehicles including water, ethanol, polyols (propylene glycol, polyethylene-glycol, glycerol, cremophor and the like), suitable mixtures thereof, vegetable oils (such as olive oil) and injectable organic esters such as ethyl oleate. Additionally, Ganaxolone can be dissolved at concentrations of >1 mg/ml using water soluble beta cyclodextrins (e.g. beta-sulfobutyl-cyclodextrin and 2-hydroxypropylbetacyclodextrin). A particularly suitable cyclodextrin is a substituted-β-cyclodextrin is CAPTISOL® (cyckodextrin). […]

[2] = Multiple dose PK, 0.3 micron capsules 600, 800, 1000 mg BID escalating, healthy volunteers; type: in vivo, human; conditions: for Cmax: steady state
Protocol: Multiple-dose studies of oral ganaxolone formulations were conducted in healthy volunteers. The 0.3 micron ganaxolone capsules were administered BID with a standard meal or snack for 7 days and at increasing doses.
Steady-state was reached within 3 days of administration of 600, 800 and 1000 mg BID ganaxolone to healthy subjects. The medium and high dose regimens were started after 3 days on the low dose and medium dose regimens, respectively. In general, ganaxolone was rapidly absorbed following PO administration and the mean Cmax was attained within 2 hours after multiple dosing; median Tmax was independent of dose level. […] Proportionality was conserved from 600 mg to 800 mg.
Values at Day 6.5, 9.5 and 12.5 are from evening samples collected 12 hrs after the last dose on PK sampling days. Subjects received 600 mg ganaxolone BID on Days 4-6; 800 mg ganaxolone BID on Days 7-9; and 1000 mg ganaxolone BID on Days 10-12.

CYP3A4 = CYP3A4 (Homo sapiens, UniProt P08684); assay: In vitro clearance
CYP3A4, sequence (P08684 whole entry): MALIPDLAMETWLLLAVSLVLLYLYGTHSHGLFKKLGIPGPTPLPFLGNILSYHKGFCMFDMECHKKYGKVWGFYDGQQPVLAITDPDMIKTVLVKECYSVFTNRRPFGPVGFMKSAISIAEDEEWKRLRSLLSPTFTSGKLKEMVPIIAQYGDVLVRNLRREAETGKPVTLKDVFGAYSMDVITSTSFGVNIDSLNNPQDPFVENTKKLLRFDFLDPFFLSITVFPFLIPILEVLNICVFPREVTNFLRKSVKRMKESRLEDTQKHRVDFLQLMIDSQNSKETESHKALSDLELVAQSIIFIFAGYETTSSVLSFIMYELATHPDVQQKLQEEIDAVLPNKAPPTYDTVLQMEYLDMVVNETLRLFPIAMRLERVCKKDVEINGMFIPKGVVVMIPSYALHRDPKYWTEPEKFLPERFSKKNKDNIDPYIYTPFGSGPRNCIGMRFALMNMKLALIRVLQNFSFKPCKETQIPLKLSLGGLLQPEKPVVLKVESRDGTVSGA

CC(=O)[C@H]1CC[C@H]2[C@@H]3CC[C@H]4C[C@](C)(O)CC[C@]4(C)[C@H]3CC[C@]12C [Ganaxolone, 3α-hydroxy-3β-methyl-5α-pregnan-20-one]
Dissolved concentration ([1]; using water soluble beta cyclodextrins): > 1 mg/mL
Solubility in water ([1]; water): insoluble
Time to steady-state ([2]; 600, 800 and 1000 mg BID, 0.3 micron capsules): ≤ 3 days
Mean fluctuation at steady-state ([2]; 600 to 1000 mg BID): 172% to 191%
Cmax ([2]; human, plasma, oral, 600 mg BID, 0.3 micron capsules): 224 ng/mL
Cmax ([2]; human, plasma, oral, 800 mg BID, 0.3 micron capsules): 263 ng/mL
Cmax ([2]; human, plasma, oral, 1000 mg BID, 0.3 micron capsules): 262 ng/mL
clearance ([2]; human, plasma, oral, 600 to 1000 mg BID, read-out: Mean apparent total body CL at steady-state): 10200 to 12800 mL/min
Dose through which pharmacokinetics are linear ([2]; immediate release 0.3-micron particles, given BID): approximately 1200 mg/day
Enzyme driving clearance (CYP3A4): driven mainly by CYP3A4
